IC50 data for 16 compounds are collected here from US9266924B2, “Cyclopentapeptide derivatives and uses thereof” (TECHNISCHE UNIVERSITÄT MÜNCHEN, priority 2010, dated 2016).

Like-named read-outs stand apart in the source and are kept apart here. Where a SMILES comes first, the peptide text is derived from it. Side-chain parts run from the residue outwards. [ ]: non-standard residue; d: D form. The star is where a group is joined. DOTA(Ga) = O=C1CN2CCN3CCN(CC(=O)*)CCN(CC2)CC(=O)[O][Ga]([O]1)[O]C(=O)C3; DOTA(In) = O=C1CN2CCN3CCN(CC(=O)*)CCN(CC2)CC(=O)[O][In]([O]1)[O]C(=O)C3; DOTA = O=C(O)CN1CCN(CC(=O)O)CCN(CC(=O)*)CCN(CC(=O)O)CC1; 2Nal = N[C@@H](Cc1ccc2ccccc2c1)C(=O)O; dNMeOrn = CN[C@H](CCCN)C(=O)O; 4Abz = Nc1ccc(C(=O)O)cc1; AEEA = NCCOCCOCC(=O)O; Ava = NCCCCC(=O)O; βAla = NCCC(=O)O

The assay deals with T1, human-CXCR4 (Homo sapiens, UniProt P61073).
T1 construct: tested first at Jurkat cells that endogenously express the CXCR4 receptor; endogenous in cells; host or cells: Jurkat cells (whole cells in suspension)
Description: Competition binding assay on Jurkat cells with 125I-CPCR4 as radiotracer. On the procedure: For receptor binding assays cells may be resuspended in PBS/0.2% BSA. A total of 200 μl of the suspension containing 400,000 Jurkat cells may be incubated with 25 μl of the tracer solution (containing 3.1 kBq, approx. 0.1 nM) and 25 μl of the diluent or the competitor at different concentrations. […] After shaking for 2 h at room temperature, the incubation may be terminated by centrifugation at 1300 rpm for 5 min, Cell pellets may be washed once with cold PBS followed by a second centrifugation step. Cell bound radioactivity may be determined by using a gamma counter. Experiments may be repeated 2-3 times in triplicates. IC50 values of the compounds may be calculated by nonlinear regression using GraphPad Prism (GraphPad Prism 4.0 Software, Inc., San Diego, Calif., USA). Each data point may be the average of three determinations.
Cells were resuspended in 0.2% PBS/0.2% BSA. A total of 200 μL of the suspension containing 2×10^6 Jurkat cells/ml or 400000 cell/200 μl were incubated with 25 μL of the tracer solution (containing 100,000 cpm, approx. 0.1 nM) and 25 μL of competitor dissolved in ultra pure H2O or, if necessary, up to 20% DMSO at different concentrations. The tracer concentration was varied from 5 to 500 pM.
After 2 h at room temperature, the incubation was terminated by centrifugation at 2000 rpm for 5 min. Cell pellets were washed once with 400 μL cold PBS. Cell bound radioactivity was determined by using a gamma counter. Experiments were repeated three times in triplicates. IC50 values of the peptides were calculated by nonlinear regression using GraphPad Prism (GraphPad Prism 4.0 Software, San Diego, Calif., USA).
The cell concentration was determined with a Casy cell counter (500 cell suspension in 10 ml Casy solution (Innovartis AG, Casy technology). The desired cell suspension volume was transferred into an Eppendorf tube, centrifuged, the supernatant was discarded and the pellet was resuspended in 20 ml 0.2% PBS-BSA-buffer.
Subsequently, the tubes were placed on a shaker for 2 h (200 mot/min). Thereafter, the tubes were centrifuged for 5 min at 2000 rpm and the supernatant carefully removed. The pellets were washed with 400 μl PBS and the tubes were again centrifuged for 5 min at 2000 rpm. After the supernatant was carefully removed, the tubes were measured in a gamma counter. All data were analyzed with a suitable software package, i.e. GraphPad Prism 4 with the following parameters: Equation: Sigmoidal dose-response, Y=Bottom+(Top−Bottom)/(1+10^((Log EC50−X))); X is the logarithm of concentration; Y is the response; Y starts at bottom and goes to top with a sigmoid shape.

Setting [1] is: read-out: IC50 [nM] (Binding Data).
Setting [2] is: Jurkat cells, 125I-CPCR4 tracer, 2 h at room temperature, read-out: IC50 [nM] (Binding Data).

T1 sequence (P61073 whole entry): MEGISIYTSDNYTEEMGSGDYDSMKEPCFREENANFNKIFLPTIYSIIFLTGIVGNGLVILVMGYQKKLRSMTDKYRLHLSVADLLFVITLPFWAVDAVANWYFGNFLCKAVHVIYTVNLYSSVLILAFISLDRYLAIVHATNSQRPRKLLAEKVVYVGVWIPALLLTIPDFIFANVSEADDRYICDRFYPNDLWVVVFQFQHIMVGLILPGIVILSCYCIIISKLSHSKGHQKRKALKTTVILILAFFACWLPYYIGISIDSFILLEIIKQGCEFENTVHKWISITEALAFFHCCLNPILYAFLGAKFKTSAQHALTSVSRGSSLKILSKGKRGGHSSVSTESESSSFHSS

With `CN1C(=O)[C@@H](Cc2ccc(O)cc2)NC(=O)CNC(=O)[C@H](Cc2ccc3ccccc3c2)NC(=O)[C@H](CCCNC(=N)N)NC(=O)[C@H]1CCCNC(=O)c1ccc(CNC(=O)CN2CCN(CC(=O)O)CCN(CC(=O)O)CCN(CC(=O)O)CC2)cc1` (single isomer, unassigned) [Compound 8, yorn′(AMBS, DOTA, In)RNalG], the IC50 (commonly the point on the concentration scale where inhibition reaches its midpoint) under setting [1] was 44.9 ± 10.4 nM.
The compound `CN1C(=O)[C@@H](Cc2ccc(O)cc2)NC(=O)CNC(=O)[C@H](Cc2ccc3ccccc3c2)NC(=O)[C@H](CCCNC(=N)N)NC(=O)[C@H]1CCCNC(=O)c1ccc(CNC(=O)CN2CCN(CC(=O)O)CCN(CC(=O)O)CCN(CC(=O)O)CC2)cc1` (single isomer, unassigned) [Compound 9, yorn′(AMBS, DOTA, Ga)RNalG] registered an IC50 (IC50 (Exemplary Binding Study A), Jurkat cells, 125I-CPCR4 tracer, n=4) of 4.78 ± 0.73 nM and an IC50 (IC50 [nM] (Binding Data), Jurkat cells, 125I-CPCR4 tracer, 2 h at room temperature) of 7 ± 4.25 nM.
Consider “yorn′(ABS, betaAla, DOTA, In)RNalG [Compound 4]”, for which the IC50 under setting [2] was 30.4 ± 3.68 nM.
Same read-out and setting: the value for `CN1C(=O)[C@@H](Cc2ccc(O)cc2)NC(=O)CNC(=O)[C@H](Cc2ccc3ccccc3c2)NC(=O)[C@H](CCCNC(=N)N)NC(=O)[C@H]1CCCNC(=O)CNC(=O)COCCOCCNC(=O)CN1CCN2CCN3CCN(CC1)CC(=O)[O][In]([O]C(=O)C2)[O]C(=O)C3` [Compound 26, yorn′(G, Trigas, DOTA, In)RNalG] (cyclo([2Nal]G[dY][dNMeOrn]([Gly-AEEA-DOTA(In)])R)) was 457 nM; that for `CN1C(=O)[C@@H](Cc2ccc(O)cc2)NC(=O)CNC(=O)[C@H](Cc2ccc3ccccc3c2)NC(=O)[C@H](CCCNC(=N)N)NC(=O)[C@H]1CCCNC(=O)CN1CCN2CCN3CCN(CC1)CC(=O)[O][Ga]([O]C(=O)C2)[O]C(=O)C3` [Compound 21, yorn′(DOTA, Ga)RNalG] (cyclo([2Nal]G[dY][dNMeOrn](DOTA(Ga))R)) was 289 nM; that for `CN1C(=O)[C@@H](Cc2ccc(O)cc2)NC(=O)CNC(=O)[C@H](Cc2ccc3ccccc3c2)NC(=O)[C@H](CCCNC(=N)N)NC(=O)[C@H]1CCCNC(=O)CCCCNC(=O)CCCCNC(=O)CN1CCN2CCN3CCN(CC1)CC(=O)[O][Ga]([O]C(=O)C2)[O]C(=O)C3` [Compound 24, yorn′(AVS, AVS, DOTA, Ga)RNalG] (cyclo([2Nal]G[dY][dNMeOrn]([Ava-Ava-DOTA(Ga)])R)) was 89.7 ± 18.3 nM.
Still for that read-out and setting: as for `CN1C(=O)[C@@H](Cc2ccc(O)cc2)NC(=O)CNC(=O)[C@H](Cc2ccc3ccccc3c2)NC(=O)[C@H](CCCNC(=N)N)NC(=O)[C@H]1CCCNC(=O)c1ccc(NC(=O)CN2CCN(CC(=O)O)CCN(CC(=O)O)CCN(CC(=O)O)CC2)cc1` [Compound 15, yorn′(ABS, DOTA)RNalG], the figure is 335 nM; as for `CN1C(=O)[C@@H](Cc2ccc(O)cc2)NC(=O)CNC(=O)[C@H](Cc2ccc3ccccc3c2)NC(=O)[C@H](CCCNC(=N)N)NC(=O)[C@H]1CCCNC(=O)c1ccc(NC(=O)CCNC(=O)CN2CCN(CC(=O)O)CCN(CC(=O)O)CCN(CC(=O)O)CC2)cc1` [Compound 1, yorn′(ABS, betaAla, DOTA)RNalG] (cyclo([dY][dNMeOrn]([4Abz-βAla-DOTA])R[2Nal]G)), 37.6 ± 14.7 nM; as for `CN1C(=O)[C@@H](Cc2ccc(O)cc2)NC(=O)CNC(=O)[C@H](Cc2ccc3ccccc3c2)NC(=O)[C@H](CCCNC(=N)N)NC(=O)[C@H]1CCCNC(=O)c1ccc(NC(=O)CN2CCN(CC(=O)O)CCN(CC(=O)O)CCN(CC(=O)O)CC2)cc1` (single isomer, unassigned) [Compound 13, yorn′(ABS, DOTA, Ga)RNalG], 11.5 ± 4.4 nM.
On the same count and under the same terms, the value for `CN1C(=O)[C@@H](Cc2ccc(O)cc2)NC(=O)CNC(=O)[C@H](Cc2ccc3ccccc3c2)NC(=O)[C@H](CCCNC(=N)N)NC(=O)[C@H]1CCCNC(=O)CN1CCN2CCN3CCN(CC1)CC(=O)[O][In]([O]C(=O)C2)[O]C(=O)C3` [Compound 20, yorn′(DOTA, In)RNalG] (cyclo([2Nal]G[dY][dNMeOrn](DOTA(In))R)) was more than 1000 nM; that for `CN1C(=O)[C@@H](Cc2ccc(O)cc2)NC(=O)CNC(=O)[C@H](Cc2ccc3ccccc3c2)NC(=O)[C@H](CCCNC(=N)N)NC(=O)[C@H]1CCCNC(=O)c1ccc(NC(=O)CCCCNC(=O)CN2CCN(CC(=O)O)CCN(CC(=O)O)CCN(CC(=O)O)CC2)cc1` [Compound 18, yorn′(ABS, AVS, DOTA)RNalG] was 121 ± 17 nM; that for `CN1C(=O)[C@@H](Cc2ccc(O)cc2)NC(=O)CNC(=O)[C@H](Cc2ccc3ccccc3c2)NC(=O)[C@H](CCCNC(=N)N)NC(=O)[C@H]1CCCNC(=O)CCCCNC(=O)CCCCNC(=O)CN1CCN2CCN3CCN(CC1)CC(=O)[O][In]([O]C(=O)C2)[O]C(=O)C3` [Compound 23, yorn′(AVS, AVS, DOTA, In)RNalG] (cyclo([2Nal]G[dY][dNMeOrn]([Ava-Ava-DOTA(In)])R)) was 123 ± 25 nM.
As for `CN1C(=O)[C@@H](Cc2ccc(O)cc2)NC(=O)CNC(=O)[C@H](Cc2ccc3ccccc3c2)NC(=O)[C@H](CCCNC(=N)N)NC(=O)[C@H]1CCCNC(=O)c1ccc(NC(=O)CNC(=O)CN2CCN(CC(=O)O)CCN(CC(=O)O)CCN(CC(=O)O)CC2)cc1` [Compound 10, yorn′(ABS, G, DOTA)RNalG], the IC50 under setting [2] was 88.8 ± 18.4 nM.
The same measure, in the same setting: the value for `CN1C(=O)[C@@H](Cc2ccc(O)cc2)NC(=O)CNC(=O)[C@H](Cc2ccc3ccccc3c2)NC(=O)[C@H](CCCNC(=N)N)NC(=O)[C@H]1CCCNC(=O)c1ccc(NC(=O)CN2CCN3CCN4CCN(CC2)CC(=O)[O][Ga]([O]C(=O)C3)[O]C(=O)C4)cc1` [Compound 17, yorn′(ABS, DOTA, Ga)RNalG] (cyclo([2Nal]G[dY][dNMeOrn]([4Abz-DOTA(Ga)])R)) was 11.5 ± 4.4 nM.
As to `CN1C(=O)[C@@H](Cc2ccc(O)cc2)NC(=O)CNC(=O)[C@H](Cc2ccc3ccccc3c2)NC(=O)[C@H](CCCNC(=N)N)NC(=O)[C@H]1CCCNC(=O)c1ccc(NC(=O)CCCCCNC(=O)CN2CCN(CC(=O)O)CCN(CC(=O)O)CCN(CC(=O)O)CC2)cc1` [Compound 14, yorn′(ABS, Ahx, DOTA)RNalG], under setting [1], the 50% inhibitory concentration (IC50) was more than 1000 nM.
`CN1C(=O)[C@@H](Cc2ccc(O)cc2)NC(=O)CNC(=O)[C@H](Cc2ccc3ccccc3c2)NC(=O)[C@H](CCCNC(=N)N)NC(=O)[C@H]1CCCNC(=O)c1ccc(NC(=O)CN2CCN3CCN4CCN(CC2)CC(=O)[O][In]([O]C(=O)C3)[O]C(=O)C4)cc1` [Compound 16, yorn′(ABS, DOTA, In)RNalG] (cyclo([2Nal]G[dY][dNMeOrn]([4Abz-DOTA(In)])R)): the IC50 under setting [2] stood at 105 nM.
